Earlier results on 3 compounds are cited in patent US20120074308A1, “IMMUNOSUPPRESSANT MONITORING BY MALDI MASS SPECTROMETRY” (priority 2010, published 2012).

The conditions of the data set: for therapeutic window: immunosuppressants currently used for transplant patients, level in blood; for narrow therapeutic range: levels in whole blood.

For the compound `CO[C@H]1C[C@@H]2CC[C@@H](C)[C@@](O)(O2)C(=O)C(=O)N2CCCC[C@H]2C(=O)O[C@H]([C@H](C)C[C@@H]2CC[C@@H](OCCO)[C@H](OC)C2)CC(=O)[C@H](C)/C=C(\C)[C@@H](O)[C@@H](OC)C(=O)[C@H](C)C[C@H](C)/C=C/C=C/C=C/1C` [Everolimus], the therapeutic window was 3 to 8 ng/mL and the narrow therapeutic range is 3 to 8 ng/mL.

For the compound `CO[C@H]1C[C@@H]2CC[C@@H](C)[C@@](O)(O2)C(=O)C(=O)N2CCCC[C@H]2C(=O)O[C@H]([C@H](C)C[C@@H]2CC[C@@H](O)[C@H](OC)C2)CC(=O)[C@H](C)/C=C(\C)[C@@H](O)[C@@H](OC)C(=O)[C@H](C)C[C@H](C)/C=C/C=C/C=C/1C` [Sirolimus], the therapeutic window is 4 to 12 ng/mL and the narrow therapeutic range is 4 to 12 ng/mL. Further, the “increased levels associated with high toxicity (thrombocytopenia, hyperlipidemia, high serum creatinine levels)” value (blood level) is recorded as “above 15 nanogram per milliliter”.

For `C=CC[C@@H]1/C=C(\C)C[C@H](C)C[C@H](OC)[C@H]2O[C@@](O)(C(=O)C(=O)N3CCCC[C@H]3C(=O)O[C@H](/C(C)=C/[C@@H]3CC[C@@H](O)[C@H](OC)C3)[C@H](C)[C@@H](O)CC1=O)[C@H](C)C[C@@H]2OC` [Tacrolimus], the therapeutic window was 4 to 20 ng/mL and the narrow therapeutic range was 4 to 20 ng/mL.
